In patent US12594276B2, “Inhibitors of human immunodeficiency virus replication” (ViiV Healthcare UK (No.5) Limited, priority 2024, dated 2026):
Like-named read-outs stand apart in the source and are kept apart here.

Assays:
[1] = test system: recombinant NL4-3 virus (nef section replaced with Renilla luciferase gene) in MT-2 cells; assay: HIV cell culture assay (antiviral activity, luciferase readout); type: cell-based; conditions: Renilla, NL43, MT-2 cells infected for 4-5 days with recombinant NL4-3 Renilla luciferase virus
Method in brief: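 Reporter virus is produced in 293T cells and its titer set in MT-2 cells by luciferase activity. MT-2 cells are then infected in the presence of serially diluted compound for 4-5 days. Luciferase is quantified and EC50 fitted to the median effect equation.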

[2] = Compound cytotoxicity, XTT-based colorimetric assay; type: cell-based; conditions: human
Method in brief: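 Uninfected MT2 cells, antiviral-assay protocol without virus; XTT colorimetric readout day 4; CC50 reported.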

[3] = uninfected MT2 cells, day 4, XTT, read-out: CC50

Row | Structure (SMILES) | EC50 [1] [pM] | CC50 at 4 days [2, 3] [pM] | CC50 at 4 days [2] [pM]
1 | COCCCn1nc(NS(C)(=O)=O)c2c(Cl)ccc(-n3c([C@H](Cc4cc(F)cc(F)c4)NC(=O)Cn4nc(C(F)F)c5c4C(F)(F)[C@@H]4C[C@H]54)nc4nc(C5CCC(F)(F)CC5)cc(CF)c4c3=O)c21 (atropisomer, axis not shown; (P)) [Example 449, N-[(1S)-1-[(3P)-3-[4-chloro-3-methanesulfonamido-1-(3-methoxypropyl)-1H-indazol-7-yl]-7-(4,4-difluorocyclohexyl)-5-(fluoromethyl)-4-oxo-3H,4H-pyrido[2,3-d]pyrimidin-2-yl]-2-(3,5-difluorophenyl)ethyl]-2-[(2S,4R)-9-(difluoromethyl)-5,5-difluoro-7,8-diazatricyclo[4.3.0.0^2,4]nona-1(6),8-dien-7-yl]acetamide] | 9 | > 20000 | 
2 | Cc1cc(C2(F)CCC(F)(F)CC2)nc2nc([C@H](Cc3cc(F)cc(F)c3)NC(=O)Cn3nc(C(F)F)c4c3C(F)(F)[C@@H]3C[C@H]43)n(-c3ccc(Cl)c4c(NS(C)(=O)=O)nn(CCN5CC6CC(C5)O6)c34)c(=O)c12 [Example 588, N-[(1S)-1-[(3P)-3-[4-chloro-3-methanesulfonamido-1-(2-{6-oxa-3-azabicyclo[3.1.1]heptan-3-yl}ethyl)-1H-indazol-7-yl]-5-methyl-4-oxo-7-(1,4,4-trifluorocyclohexyl)-3H,4H-pyrido[2,3-d]pyrimidin-2-yl]-2-(3,5-difluorophenyl)ethyl]-2-[(2S,4R)-9-(difluoromethyl)-5,5-difluoro-7,8-diazatricyclo[4.3.0.0^2,^4]nona-1(6),8-dien-7-yl]acetamide] | 8 |  | > 20000
3 | Cc1cc(C2(F)CCC(F)(F)CC2)nc2nc([C@H](Cc3cc(F)cc(F)c3)NC(=O)Cn3nc(C4CC4)c4c3C[C@@H]3C[C@H]43)n(-c3ccc(Cl)c4c(NS(C)(=O)=O)nn(CCN5CCOCC5(C)C)c34)c(=O)c12 (atropisomer, axis not shown; (P)) [Example 586, N-[(1S)-1-[(3P)-3-{4-chloro-1-[2-(3,3-dimethylmorpholin-4-yl)ethyl]-3-methanesulfonamido-1H-indazol-7-yl}-5-methyl-4-oxo-7-(1,4,4-trifluorocyclohexyl)-3H,4H-pyrido[2,3-d]pyrimidin-2-yl]-2-(3,5-difluorophenyl)ethyl]-2-[(2S,4S)-9-cyclopropyl-7,8-diazatricyclo[4.3.0.0^2,^4]nona-1(6),8-dien-7-yl]acetamide] | 16 | > 20000 | 
4 | C[C@@H]1CN(CCn2nc(NS(C)(=O)=O)c3c(Cl)ccc(-n4c([C@H](Cc5cc(F)cc(F)c5)NC(=O)Cn5nc(C6CC6)c6c5C[C@@H]5C[C@H]65)nc5nc(C6CCC(F)(F)CC6)cc(C(F)F)c5c4=O)c32)C[C@H](C)O1 (atropisomer, axis not shown; (P)) [Example 240, N-[(1S)-1-[(3P)-3-(4-chloro-1-{2-[(2R,6S)-2,6-dimethylmorpholin-4-yl]ethyl}-3-methanesulfonamido-1H-indazol-7-yl)-7-(4,4-difluorocyclohexyl)-5-(difluoromethyl)-4-oxo-3H,4H-pyrido[2,3-d]pyrimidin-2-yl]-2-(3,5-difluorophenyl)ethyl]-2-[(2S,4S)-9-cyclopropyl-7,8-diazatricyclo[4.3.0.0^2,^4]nona-1(6),8-dien-7-yl]acetamide] | 26 | > 50000 | 
5 | CS(=O)(=O)Nc1nn(CCN2C[C@H]3CC[C@@H](C2)O3)c2c(-n3c([C@H](Cc4cc(F)cc(F)c4)NC(=O)Cn4nc(C5CC5)c5c4C[C@@H]4C[C@H]54)nc4nc(C5CCC(F)(F)CC5)cc(C5CC5)c4c3=O)ccc(Cl)c12 (atropisomer, axis not shown; (P)) [Example 325, N-[(1S)-1-[(3P)-3-(4-chloro-3-methanesulfonamido-1-{2-[(1R,5S)-8-oxa-3-azabicyclo[3.2.1]octan-3-yl]ethyl}-1H-indazol-7-yl)-5-cyclopropyl-7-(4,4-difluorocyclohexyl)-4-oxo-3H,4H-pyrido[2,3-d]pyrimidin-2-yl]-2-(3,5-difluorophenyl)ethyl]-2-[(2S,4S)-9-cyclopropyl-7,8-diazatricyclo[4.3.0.0^2,^4]nona-1(6),8-dien-7-yl]acetamide] | 9 | > 50000 | 
6 | Cc1cc(C2(F)CCC(F)(F)CC2)nc2nc([C@H](Cc3cc(F)cc(F)c3)NC(=O)Cn3nc([C@H]4CC4(F)F)c4c3C[C@H]3C[C@@H]43)n(-c3ccc(Cl)c4c(NS(C)(=O)=O)nn(CCN5C[C@H](F)C[C@H](F)C5)c34)c(=O)c12 (atropisomer, axis not shown; (P)) [Example 573, N-[(1S)-1-[(3P)-3-(4-chloro-1-{2-[(3R,5S)-3,5-difluoropiperidin-1-yl]ethyl}-3-methanesulfonamido-1H-indazol-7-yl)-5-methyl-4-oxo-7-(1,4,4-trifluorocyclohexyl)-3H,4H-pyrido[2,3-d]pyrimidin-2-yl]-2-(3,5-difluorophenyl)ethyl]-2-[(2R,4R)-9-[(1R)-2,2-difluorocyclopropyl]-7,8-diazatricyclo[4.3.0.0^2,^4]nona-1(6),8-dien-7-yl]acetamide] | 12 | > 20000 | 
7 | Cc1cc(C2CCC(F)(F)CC2)nc2nc([C@H](Cc3cc(F)cc(F)c3)NC(=O)Cn3nc(C4CC4)c4c3C[C@@H]3C[C@H]43)n(-c3ccc(Cl)c4c(NS(C)(=O)=O)nn(CCN5CCCC5)c34)c(=O)c12 (atropisomer, axis not shown; (P)) [Example 273, N-[(1S)-1-[(3P)-3-{4-chloro-3-methanesulfonamido-1-[2-(pyrrolidin-1-yl)ethyl]-1H-indazol-7-yl}-7-(4,4-difluorocyclohexyl)-5-methyl-4-oxo-3H,4H-pyrido[2,3-d]pyrimidin-2-yl]-2-(3,5-difluorophenyl)ethyl]-2-[(2S,4S)-9-cyclopropyl-7,8-diazatricyclo[4.3.0.0^2,^4]nona-1(6),8-dien-7-yl]acetamide] | 20 | > 50000 | 
8 | CS(=O)(=O)Nc1nn(CCN2CC[C@](F)(C(F)(F)F)C2)c2c(-n3c([C@H](Cc4cc(F)cc(F)c4)NC(=O)Cn4nc(C(F)F)c5c4C(F)(F)[C@@H]4C[C@H]54)nc4nc(C5CCC(F)(F)CC5)ccc4c3=O)ccc(Cl)c12 (atropisomer, axis not shown; (P)) [Example 41] | 15 | > 50000 | 
9 | Cc1cc(C2CCC(F)(F)CC2)nc2nc([C@H](Cc3cc(F)cc(F)c3)NC(=O)Cn3nc(C(F)F)c4c3C(F)(F)[C@@H]3C[C@H]43)n(-c3ccc(Cl)c4c(NS(C)(=O)=O)nn(CCN5CCCC(F)(F)CC5)c34)c(=O)c12 (atropisomer, axis not shown; (P)) [Example 15, N-[(1S)-1-[(3P)-3-{4-chloro-1-[2-(4,4-difluoroazepan-1-yl)ethyl]-3-methanesulfonamido-1H-indazol-7-yl}-7-(4,4-difluorocyclohexyl)-5-methyl-4-oxo-3H,4H-pyrido[2,3-d]pyrimidin-2-yl]-2-(3,5-difluorophenyl)ethyl]-2-[(2S,4R)-9-(difluoromethyl)-5,5-difluoro-7,8-diazatricyclo[4.3.0.0^2,^4]nona-1(6),8-dien-7-yl]acetamide] | 10 | > 50000 | 
10 | COCCCn1nc(NS(C)(=O)=O)c2c(Cl)ccc(-n3c([C@H](Cc4cc(F)cc(F)c4)NC(=O)Cn4nc(C5CC5)c5c4C[C@@H]4C[C@H]54)nc4nc(C5CCC(F)(F)CC5)cc(C5CC5)c4c3=O)c21 (atropisomer, axis not shown; (P)) [Example 376, N-[(1S)-1-[(3P)-3-[4-chloro-3-methanesulfonamido-1-(3-methoxypropyl)-1H-indazol-7-yl]-5-cyclopropyl-7-(4,4-difluorocyclohexyl)-4-oxo-3H,4H-pyrido[2,3-d]pyrimidin-2-yl]-2-(3,5-difluorophenyl)ethyl]-2-[(2S,4S)-9-cyclopropyl-7,8-diazatricyclo[4.3.0.0^2,^4]nona-1(6),8-dien-7-yl]acetamide] | 16 | > 20000 | 
11 | COCCOCCn1nc(NS(C)(=O)=O)c2c(Cl)ccc(-n3c([C@H](Cc4cc(F)cc(F)c4)NC(=O)Cn4nc(C5CC5)c5c4C[C@@H]4C[C@H]54)nc4nc(C5CCC(F)(F)CC5)ccc4c3=O)c21 (atropisomer, axis not shown; (P)) [Example 237, N-[(1S)-1-[(3P)-3-{4-chloro-3-methanesulfonamido-1-[2-(2-methoxyethoxy)ethyl]-1H-indazol-7-yl}-7-(4,4-difluorocyclohexyl)-4-oxo-3H,4H-pyrido[2,3-d]pyrimidin-2-yl]-2-(3,5-difluorophenyl)ethyl]-2-[(2S,4S)-9-cyclopropyl-7,8-diazatricyclo[4.3.0.0^2,^4]nona-1(6),8-dien-7-yl]acetamide] | 6 | > 50000 | 
12 | Cc1cc(C2(F)CCC(F)(F)CC2)nc2nc([C@H](Cc3cc(F)cc(F)c3)NC(=O)Cn3nc([C@H]4CC4(F)F)c4c3C[C@H]3C[C@@H]43)n(-c3ccc(Cl)c4c(NS(C)(=O)=O)nn(CCN5C[C@@H](C)O[C@@H](C)C5)c34)c(=O)c12 (atropisomer, axis not shown; (P)) [Example 598, N-[(1S)-1-[(3P)-3-(4-chloro-1-{2-[(2R,6S)-2,6-dimethylmorpholin-4-yl]ethyl}-3-methanesulfonamido-1H-indazol-7-yl)-5-methyl-4-oxo-7-(1,4,4-trifluorocyclohexyl)-3H,4H-pyrido[2,3-d]pyrimidin-2-yl]-2-(3,5-difluorophenyl)ethyl]-2-[(2R,4R)-9-[(1R)-2,2-difluorocyclopropyl]-7,8-diazatricyclo[4.3.0.0^2,^4]nona-1(6),8-dien-7-yl]acetamide] | 9 | > 20000 | 
